Test results as given in publication PMC6271218, “Pharmacokinetics, Tissue Distribution and Excretion of Verticinone from F. hupehensis in Rats” (Molecules, 2014).
Like-named read-outs stand apart in the source and are kept apart here.

Assay: Single-dose plasma pharmacokinetics after i.g. administration
Format: in vivo, SD rats
Conditions: for bioavailability / AUC(0-inf) / AUC(0-t) / Tmax / MRT last / Vd/F / half-life / Cmax: SD, rat, plasma; for bioavailability: oral, i.g. vs i.v., read-out: absolute (oral) bioavailability; for AUC(0-inf) / AUC(0-t) / Tmax / MRT last / Vd/F / half-life / Cmax: po; for MRT last: read-out: MRT0–t; for Vd/F: read-out: Vz/F; for half-life: read-out: t1/2z (converted); for Cmax: n = 5; for relationship between dosages and AUC0–t in plasma: oral 1, 2 and 4 mg/kg
Method: Pharmacokinetic studies of verticinone after intravenous (i.v.) and intragastrical (i.g.) administration to rats were designed to determine pharmacokinetic parameters and absolute bioavailability. For i.g administration, verticinone was suspended in 0.5% carboxymethyl cellulose sodium (CMC-Na) to final concentrations of 0.2, 0.4 and 0.8 mg/mL. Verticinone was dissolved in 20% ethanol/80% water to final concentration of 0.08 mg/mL for i.v. administration. For the i.v. group, five male and five female rats received a single dose of 0.4 mg/kg. Blood samples (0.25 mL) were obtained at 0, 4, 15, 30, 45, 60, 120, 240, 360, 480, 600 and 720 min after injection. For the single- i.g. group, fifteen male and fifteen female rats were divided into three groups, and each group received a single oral dose of 1, 2 and 4 mg/kg of verticinone, respectively. In addition, another five male and five female rats received multiple oral doses of 4 mg/kg/day, given as 2 mg/kg doses twice a day (one dose in the morning and the second dose 12 h later) for 7 days, then a single oral dose of 2 mg/kg on the eighth day. Blood samples (0.25 mL) were obtained at 0, 5, 15, 30, 45, 60, 90, 120, 240, 360, 480 and 720 min for male rats and at 0, 5, 10, 20, 30, 45, 60, 120, 240, 360, 480 and 720 min for female rats after oral administration (the eighth day for multiple-dose group). Blood samples were then centrifuged at 4000 rpm for 10 min, and the plasma was collected. All plasma samples were frozen and stored at −20 °C until analysis. Verticinone was isolated from plasma by liquid-liquid extraction according to our previously reported procedure.
The quantification of verticinone was performed by a LC-MS method based on the previously reported method with slight modifications. The liquid chromatography system consisted of a model 2010 chromatograph (Shimadzu, Kyoto, Japan) equipped with a Shim-Pack VP-ODS C18 column (150 mm × 2.0 mm, 5 μm). A Shimadzu 2010 mass spectrometer (Q-array-Octapole-Quadrupole mass analyzer) equipped with an electrospray ionization interface was used for MS detection. The mobile phase consisted of (A) distilled water and (B) methanol, and the flow rate was 0.2 mL/min. Chromatography separation was achieved using a gradient elution program, as follows: 0.03→6.0 min, B% 15→85; 6.0→7.0 min, B% 85→85; 7.0→8.0 min, B% 85→15; 8.0–12.0 min, B% 15→15. The column and autosampler tray temperature were kept constant at 35 °C and 20 °C, respectively. For the determination of verticinone, the positive mode was selected, along with the conditions as follows.
CDL voltage […], probe voltage 4.5 kV, CDL temperature 250 °C, block temperature 200 °C, gas flow 1.5 L/min. Hupehenine was used as the internal standard (IS). Both verticinone and IS were detected using selected ion monitoring (SIM) at m/z 430.25 for verticinone and m/z 416.30 for hupehenine (IS), with a dwell time of 200 ms. Blank plasma, tissue homogenate, urine, feces homogenate and bile were used to prepare the corresponding calibration curves to avoid different matrix effects.
The pharmacokinetic parameters were calculated by the DAS 2.0 software (Chinese Pharmacological Association, Beijing, China) using a standard non-compartmental method. The Cmax and Tmax were determined from the observed data. The elimination rate constant (ke) was calculated by log-linear regression of verticinone concentrations during the terminal elimination phase and the half-life (t1/2) was calculated as 0.693/ke. The AUC0–t was calculated by the linear trapezoidal method. The AUC0–∞ was calculated as the sum of AUC0–t and the extrapolated part determined by Clast/ke. The total clearance (CL) was calculated as dose/AUC0–∞. The absolute bioavailability (F) was calculated by the following equation: F = [(AUCi.g./AUCi.v.) × (Dosei.v./Dosei.g.)] × 100%. The results were expressed as mean ± SD. Statistical analyses were performed using an unpaired Student’s t-test.

[1] = i.g. 1 mg/kg single dose, female rats
[2] = i.g. 1 mg/kg single dose, male rats
[3] = i.g. 2 mg/kg single dose, female rats
[4] = i.g. 2 mg/kg single dose, male rats
[5] = i.g. 4 mg/kg single dose, female rats
[6] = i.g. 4 mg/kg single dose, male rats

C[C@H]1CC[C@@H]2N(C1)C[C@H]1[C@@H]3C[C@H]4[C@@H](CC(=O)[C@H]5C[C@@H](O)CC[C@@]54C)[C@@H]3CC[C@@H]1[C@]2(C)O [verticinone, Verticinone]
bioavailability (female rats): 2.74% | bioavailability (male rats): 45.8% | AUC(0-inf) [1]: 15.3 ± 3.06 ng·h/mL | AUC(0-t) [1]: 14.5 ± 3.27 ng·h/mL | Tmax [1]: 0.67 ± 0.31 h | MRT last [1]: 3.59 ± 0.18 h | Vd/F [1]: 280 ± 160 L/kg | half-life [1]: 2.86 ± 1.29 h | AUC(0-inf) [2]: 167 ± 52.5 ng·h/mL | AUC(0-t) [2]: 159 ± 50.1 ng·h/mL | Tmax [2]: 0.7 ± 0.11 h | MRT last [2]: 3.21 ± 0.34 h | Vd/F [2]: 25.5 ± 9.07 L/kg | half-life [2]: 2.78 ± 0.85 h | AUC(0-inf) [3]: 18.8 ± 5.01 ng·h/mL | AUC(0-t) [3]: 17.3 ± 5.4 ng·h/mL | Tmax [3]: 0.4 ± 0.36 h | MRT last [3]: 3.42 ± 1.22 h | Vd/F [3]: 649 ± 419 L/kg | half-life [3]: 4.05 ± 2.48 h | AUC(0-inf) [4]: 475 ± 119 ng·h/mL | AUC(0-t) [4]: 446 ± 111 ng·h/mL | Tmax [4]: 1.45 ± 1.42 h | MRT last [4]: 3.62 ± 0.37 h | Vd/F [4]: 19.4 ± 6.7 L/kg | half-life [4]: 3.05 ± 0.78 h | AUC(0-inf) [5]: 27.1 ± 5.78 ng·h/mL | AUC(0-t) [5]: 26.6 ± 5.84 ng·h/mL | Tmax [5]: 0.4 ± 0.35 h | MRT last [5]: 2.04 ± 0.21 h | Vd/F [5]: 387 ± 74.2 L/kg | half-life [5]: 1.84 ± 0.58 h | AUC(0-inf) [6]: 769 ± 257 ng·h/mL | AUC(0-t) [6]: 737 ± 236 ng·h/mL | Tmax [6]: 0.7 ± 0.11 h | MRT last [6]: 3.19 ± 0.48 h | Vd/F [6]: 18.6 ± 9.14 L/kg | half-life [6]: 2.33 ± 0.86 h | Cmax [1]: 3.67 ± 1.13 ng/mL | Cmax [2]: 38.9 ± 9.34 ng/mL | Cmax [3]: 7.45 ± 7.1 ng/mL | Cmax [4]: 94.8 ± 17.1 ng/mL | Cmax [5]: 12.6 ± 5.14 ng/mL | Cmax [6]: 176 ± 45.2 ng/mL | relationship between dosages and AUC0–t in plasma (female rats): nonlinear dependence | relationship between dosages and AUC0–t in plasma (male rats): linear dependence
